# Source: patent US20120115869A1, “TETRAZOLE DERIVATIVES” (MERCK SERONO S.A., priority 2009, published 2012)
# Experiments:
# CRTH2 (DP2) = target: T1, CRTH2 (DP2) (Homo sapiens, UniProt Q9Y5Y4); test: Radioligand binding Scintillation Proximity Assay ([3H]PGD2, hCRTH2-CHO cell membranes); conditions: 1.5 nM [3H]PGD2, hCRTH2-CHO cell membranes, SPA
# T1 construct: host or cells: CHO cells
# T1 sequence (Q9Y5Y4 1-395): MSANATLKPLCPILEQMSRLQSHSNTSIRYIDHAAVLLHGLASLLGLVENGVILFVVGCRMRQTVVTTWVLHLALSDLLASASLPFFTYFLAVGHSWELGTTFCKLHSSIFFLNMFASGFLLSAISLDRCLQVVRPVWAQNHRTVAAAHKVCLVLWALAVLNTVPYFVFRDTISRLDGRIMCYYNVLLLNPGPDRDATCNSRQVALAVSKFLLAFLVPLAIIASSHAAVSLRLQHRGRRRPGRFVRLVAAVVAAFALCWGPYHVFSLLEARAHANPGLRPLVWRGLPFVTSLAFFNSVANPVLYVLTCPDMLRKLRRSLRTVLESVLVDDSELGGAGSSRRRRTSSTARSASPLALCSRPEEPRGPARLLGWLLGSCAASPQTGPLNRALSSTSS
# In short: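 Membranes from CHO cells stably expressing human CRTH2, made by nitrogen cavitation and differential centrifugation. Compounds competed with [3H]PGD2 at 1% DMSO for 90 min with agitation at room temperature. Non-specific binding taken with 10 μM PGD2.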
# CRTH2 [1] = target: T2, CRTH2 (Homo sapiens, UniProt Q9Y5Y4); test: Cellular Dielectric Spectroscopy in CHO-CRTH2 cells; format: cell-based; conditions: for IC50: fixed concentration of PGD2 (EC80), read-out: IC50(μM) (CDS, antagonist); for EC50: agonist activity without PGD2, read-out: EC50(μM) (CDS, partial agonist); for Emax: agonist activity without PGD2, read-out: EMax (CDS, partial agonist)
# T2 construct: expressed in transfected cells; host or cells: CHO cells
# T2 sequence (Q9Y5Y4 1-395): T1 sequence (Q9Y5Y4 1-395)
# Method: Cellular Dielectric Spectroscopy (CDS) is a label-free technology based on the measurement of complex impedance changes (delta Z or dZ). Impedance (Z) is related to the ratio of voltage to current as described by Ohm's law (Z=V/I). In order to measure the changes in impedance that occur in response to receptor stimulation, mammalian cells are seeded onto a custom 96-well microtiter plate that contains electrodes at the bottom of each well Key contributors to the impedance measurements are changes in cell-substrate adherence, changes in cell shape and volume, and changes in cell-cell interactions. These factors individually or collectively affect the flow of current, influencing the magnitude and characteristics of the signal measured. G-protein coupled receptors ligand-induced activity can be measured using this technology and specific G protein coupling can be identified. Activities of reference agonist and antagonist molecules of CRTH2 have been measured using this assay and similar results were obtained compared to different functional assays.
# CHO—CRTH2 cells are cultured in HAM's F12 (Lonza, Switzerland) supplemented with 10% foetal calf serum (PAA, Australia) and 400 μg/ml Geneticin. 100000 cells/well are seeded in standard 96 W Microplates (MDS Analytical Technologies) and incubated at 37° C. in 5% CO2 for 24 hours. Cells are washed twice with 135 μl of cell key buffer (Hank's Balanced Salt Solution 1× (HBSS) (Invitrogen) supplemented with 10 mM HEPES pH 7.4 in presence of 1% DMSO). […] Results are expressed as the amplitude between the highest and the lowest signal produced (max-min). Basal and maximum activities are measured, respectively in absence or presence of PGD2 (EC80).
# [2] = In vivo pharmacokinetic evaluation in mouse; conditions: female, C57BL/6, mouse, plasma, mice
# Method: In order to study the pharmacokinetic (PK) profile of test compounds in vivo, Sprague Dawley male rats or C57BL/6 female mice were dosed intravenously or after oral gavage. For both species, test compounds were dosed in solution at 1 mg/kg for i.v. route (10% ethanol, 10% N,N-dimethylacetamide, 30% propylene glycol, 50% water, v/v) and in suspension at 5 mg/kg (0.5% carboxymethylcellulose suspension, containing 0.25% Tween 20 in water) for oral gavage. PK profile in rat was obtained from 3 animals per dosing route and mouse PK profile was determined from 3 animals for each time points. The volume of administration was 2 mL/kg for i.v. dosing in both species and either 5 mL/kg (rat) or 10 mL/kg (mouse) for oral gavage. Blood samples (100 μL/time point) were collected at 0.083 (5 min), 0.25, 0.5, 1, 4, 7 and 24 hours post-dose for i.v. dosing, and at 0.5, 1, 4, 7 and 24 h for oral dosing, into heparin-Li+ containing tubes. For rats, all blood samples were collected trough a catheter in the carotid artery (placed in the artery the day before the experiment), under light isoflurane anesthesia, and stored on ice until centrifugation and plasma isolation. For mouse, blood samples were collected from intracardiac puncture at sacrifice at each time point and processed as described above for the rat. Plasma samples were stored frozen until analysis (−20° C. to −70° C.). For bioanalysis, samples were processed by protein precipitation (acetonitrile, formic acid 0.1%, addition of 3 volumes) after addition of one internal standard and analysed using a sensitive and selective LC/MS/MS method. An aliquot of the resulting supernatant was subject to LC/MS/MS analysis using a reverse phase column (Waters Xterra, C8, (3.5 μm particle size, 2.1×50 mm) and a short gradient (1 min) from (Solvent A) 85% water, 15% acetonitrile and 0.1% formic acid to (Solvent B) 90% acetonitrile, 10% water and 0.1% formic acid followed by isocratic conditions of Solvent B for 3.5 min at 0.4 mL/min. Column effluent was monitored using a Sciex API 4000 triple quadrupole mass spectrometer with a Turbo V electrospray ion source. Unknown concentrations of test compounds were determined using a calibration curve ranging from 1 to 3000 ng/mL.
# CRTH2 [3] = target: T2, CRTH2; test: [35S]GTPγS binding assay on CHO-CRTH2 cell membranes; format: biochemical; conditions: for Emax: without addition of PGD2, 100% of Emax being the activity measured by the addition of 1 μM of PGD2
# Method: Adherent CHO cells expressing hCRTH2 (Euroscreen, Belgium) were cultured in 225 cm^2 cell culture flasks (Corning, USA) in 30 ml of medium. After two rinses of phosphate buffered saline (PBS), cells were harvested in 10 ml of PBS containing 1 mM EDTA, centrifuged at 500×g for 5 min at 4° C. and frozen at −80° C. The pellet was re-suspended in 50 mM Tris-HCl, pH 7.4, 2 mM EDTA, 250 mM Sucrose, containing protease inhibitor cocktail tablets, (Complete EDTA-free, Roche, Germany) and incubated 30 min at 4° C. Cells were disrupted by nitrogen cavitation (Parr Instruments, USA) at 4° C. (800 p.s.i. for 30 min), and centrifuged at 500×g for 10 min at 4° C. Pellet containing nuclei and cellular debris was discarded and supernatant was centrifuged 60 min at 4° C. at 45000×g. Membrane pellet was re-suspended in storage buffer (10 mM HEPES/KOH pH 7.4, 1 mM EDTA, 250 mM sucrose, protease inhibitor cocktail tablets) using Dounce homogenization and frozen in liquid nitrogen, and stored at 80° C.
# The [^35S]GTPγS assay measures the increase in guanine nucleotide exchange at G-proteins in cell membranes, resulting from agonist (PGD2) binding to CRTH2. […] Briefly, Compounds of Formula (I) are incubated in 96-well scintillating white polystyrene plates (Perkin Elmer, USA) in a final volume of 200 μl containing 20 mM HEPES/KOH pH 7.4, 3 mM MgCl2, 10 μg/ml Saponin, 5 μM GDP, 75 mM NaCl and 2% of dimethylsulphoxide (DMSO). […] After 60 min incubation at 30° C., reaction is stopped by centrifugation at 700×g, at 4° C. for 10 minutes and supernatant is removed. […] For IC50 determination, increasing concentrations of compounds are incubated in presence of a fixed concentration of PGD2 (EC80). For EC50 measurements, compounds are incubated without addition of PGD2. Basal [^35S]GTPγS activity is determined without addition of any ligands or compounds. 100% [^35S]GTPγS activity is measured by the addition of 1 μM of PGD2.
Structure (SMILES),IC50 (CRTH2 (DP2)),melting point,Emax (CRTH2 [3]),other results
"C#Cc1cccc(CN(C(=O)CCCC)c2cc(-c3nnn[nH]3)ccc2F)c1 [Example 1, N-(3-ethynylbenzyl)-N-[2-fluoro-5-(1H-tetrazol-5-yl)phenyl]pentanamide]",12 nM,–,–,"IC50 (CRTH2 [1]): 0.096 µM; clearance ([2]; iv, i.v. 1 mg/Kg): 1.67 mL/min/kg; AUC ([2]; oral gavage 5 mg/Kg): 12200 ng·h/mL; bioavailability ([2]; po 5 mg/Kg vs iv 1 mg/Kg): 33%"
"CCCCC(=O)N(Cc1cccn1S(=O)(=O)c1ccccc1)c1cc(-c2nnn[nH]2)ccc1F [Example 4, N-[2-fluoro-5-(1H-tetrazol-5-yl)phenyl]-N-{[1-(phenylsulfonyl)-1H-pyrrol-2-yl]methyl}pentanamide]",51 nM,–,–,IC50 (CRTH2 [1]): 0.22 µM
"CCCCC(=O)N(Cc1cccc(OC)c1)c1cc(F)cc(-c2nnn[nH]2)c1 [Example 37, N-[3-fluoro-5-(1H-tetrazol-5-yl)phenyl]-N-(3-methoxybenzyl)pentanamide]",3.6 nM,118 to 120 °C,–,–
"CCCCC(=O)N(Cc1ccc(OC(F)(F)F)cc1)c1cc(Cl)cc(-c2nnn[nH]2)c1 [Example 40, N-[3-chloro-5-(1H-tetrazol-5-yl)phenyl]-N-[4-(trifluoromethoxy)benzyl]pentanamide]",25 nM,177 to 180 °C,-9.9%,–
"CCC(=O)N(Cc1ccc(OC)cc1)c1cc(F)cc(-c2nnn[nH]2)c1 [Example 41, N-[3-fluoro-5-(1H-tetrazol-5-yl)phenyl]-N-(4-methoxybenzyl)propanamide]",9 nM,158 to 160 °C,–,–
"CCCCC(=O)N(Cc1ccc(OC(F)(F)F)c(Cl)c1)c1cc(F)cc(-c2nnn[nH]2)c1 [Example 54, N-[3-chloro-4-(trifluoromethoxy)benzyl]-N-[3-fluoro-5-(1H-tetrazol-5-yl)phenyl]pentanamide]",15 nM,137 °C,-12.6%,–
"CCCC(=O)N(Cc1ccc(OC(F)(F)F)cc1)c1cc(Cl)cc(-c2nnn[nH]2)c1 [Example 55, N-[3-chloro-5-(1H-tetrazol-5-yl)phenyl]-N-[4-(trifluoromethoxy)benzyl]butanamide]",16 nM,179 °C,-13.5%,–
"CCC(=O)N(Cc1cccc(-c2ccccc2)c1)c1cccc(-c2nnn[nH]2)c1 [Example 59, N-(biphenyl-3-ylmethyl)-N-[3-(1H-tetrazol-5-yl)phenyl]propanamide]",230 nM,91 °C,–,–
"CCC(=O)N(Cc1ccc(S(C)(=O)=O)cc1)c1cc(F)cc(-c2nnn[nH]2)c1 [Example 78, N-[3-fluoro-5-(1H-tetrazol-5-yl)phenyl]-N-[4-(methylsulfonyl)benzyl]propanamide]",3.5 nM,–,19%,EC50 (CRTH2 [1]): 0.0011 µM; Emax (CRTH2 [1]): 42%; IC50 (CRTH2 [1]): 0.014 µM
"CS(=O)(=O)c1ccc(CN(C(=O)c2ccccc2)c2cc(F)cc(-c3nnn[nH]3)c2)cc1 [Example 108, N-[3-fluoro-5-(1H-tetrazol-5-yl)phenyl]-N-[4-(methylsulfonyl)benzyl]benzamide]",2.6 nM,–,-10.1%,"IC50 (CRTH2 [1]): 0.049 µM; IC50 (CRTH2 [3]; in presence of a fixed concentration of PGD2 (EC80), read-out: IC50 ([35S]GTPγS, antagonist)): 22.4 nM"

# The next lines start with results.
IC50 (CRTH2 (DP2)),melting point,Emax (CRTH2 [3]),Structure (SMILES),other results
3.6 nM,122 to 125 °C,–,"CCCCC(=O)N(Cc1ccc(OC)cc1)c1cc(F)cc(-c2nnn[nH]2)c1 [Example 38, N-[3-fluoro-5-(1H-tetrazol-5-yl)phenyl]-N-(4-methoxybenzyl)pentanamide]",–
7.4 nM,146 to 151 °C,–,"COCCC(=O)N(Cc1ccc(OC(F)(F)F)cc1)c1cc(Cl)cc(-c2nnn[nH]2)c1 [Example 68, N-[3-chloro-5-(1H-tetrazol-5-yl)phenyl]-3-methoxy-N-[4-(trifluoromethoxy)benzyl]propanamide]",–
3.7 nM,–,–,"CC(C)CC(=O)N(Cc1ccc(S(C)(=O)=O)cc1)c1cc(F)cc(-c2nnn[nH]2)c1 [Example 104, N-[3-fluoro-5-(1H-tetrazol-5-yl)phenyl]-3-methyl-N-[4-(methylsulfonyl)benzyl]butanamide]",EC50 (CRTH2 [1]): 0.0011 µM; Emax (CRTH2 [1]): 27%
6.2 nM,–,–,"CS(=O)(=O)c1ccc(CN(C(=O)C2CCCC2)c2cc(F)cc(-c3nnn[nH]3)c2)cc1 [Example 105, N-[3-fluoro-5-(1H-tetrazol-5-yl)phenyl]-N-[4-(methylsulfonyl)benzyl]cyclopentanecarboxamide]",EC50 (CRTH2 [1]): 0.0024 µM; Emax (CRTH2 [1]): 22%
1 nM,–,–,"CS(=O)(=O)c1ccc(CN(C(=O)Cc2ccccc2)c2cc(F)cc(-c3nnn[nH]3)c2)cc1 [Example 109, N-[3-fluoro-5-(1H-tetrazol-5-yl)phenyl]-N-[4-(methylsulfonyl)benzyl]-2-phenylacetamide]",EC50 (CRTH2 [1]): 0.0012 µM; Emax (CRTH2 [1]): 32%
